From patent publication US11365196B2, “FGFR inhibitor and application thereof” (Betta Pharmaceuticals Co., Ltd., priority 2017, dated 2022)
Like-named read-outs stand apart in the source and are kept apart here.

Experiments:
[1] = biological target: FGFR1 (Homo sapiens (Human), UniProt P11362); experiment: Kinase assay Method 1, mobility shift assay
Description: Method 1: The inhibitory activity of some compounds of the present disclosure against FGFR1, FGFR2, FGFR3, FGFR4, KDR was tested by mobility shift assay (concentration of ATP is Km value).
Preparing of compounds: dilute test compounds to specific concentration using 100% DMSO

[2] = system: NCI-H1581 cells; experiment: Cell proliferation assay on NCI-H1581 (Table 7); assay type: cell-based, human; settings: Homo sapiens
Text: Test method: adding the appropriate volume of whole medium and the cells was suspended.

[3] = read-out: IC50(nM) value of compounds FGFR1, mobility shift assay, ATP at Km, class symbols
[4] = NCI-H1581, CellTiter 96 AQueous (144 hrs) or CellTiter Glo (96 hrs), class symbols, read-out: IC50(nM) value of compounds on NCI-H1581 cells

FGFR1, sequence (P11362 22-822): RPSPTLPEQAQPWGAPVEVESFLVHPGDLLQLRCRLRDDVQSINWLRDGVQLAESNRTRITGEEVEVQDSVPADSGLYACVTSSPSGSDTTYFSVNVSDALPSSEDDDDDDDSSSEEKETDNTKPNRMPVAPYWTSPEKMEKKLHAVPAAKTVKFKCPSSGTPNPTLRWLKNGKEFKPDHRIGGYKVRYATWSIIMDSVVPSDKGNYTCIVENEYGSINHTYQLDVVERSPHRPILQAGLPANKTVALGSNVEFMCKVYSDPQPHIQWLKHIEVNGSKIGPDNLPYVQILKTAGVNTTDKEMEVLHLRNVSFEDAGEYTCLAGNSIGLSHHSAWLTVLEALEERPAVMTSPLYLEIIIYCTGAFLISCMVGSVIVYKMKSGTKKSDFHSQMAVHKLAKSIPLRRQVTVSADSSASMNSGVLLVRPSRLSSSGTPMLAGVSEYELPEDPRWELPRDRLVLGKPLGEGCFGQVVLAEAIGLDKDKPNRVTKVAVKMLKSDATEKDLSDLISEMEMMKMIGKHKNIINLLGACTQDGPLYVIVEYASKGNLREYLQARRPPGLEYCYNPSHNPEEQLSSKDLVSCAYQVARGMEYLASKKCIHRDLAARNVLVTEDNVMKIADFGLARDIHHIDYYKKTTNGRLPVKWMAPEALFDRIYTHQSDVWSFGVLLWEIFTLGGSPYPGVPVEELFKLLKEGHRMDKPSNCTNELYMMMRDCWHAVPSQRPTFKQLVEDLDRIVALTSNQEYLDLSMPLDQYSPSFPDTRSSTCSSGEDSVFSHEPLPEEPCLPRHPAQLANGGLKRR

Structure (SMILES)	IC50 [1, 3] [nM]	IC50 [2, 4] [nM]	IC50 [1] [nM]	IC50 ([2]; NCI-H1581, read-out: IC50(nM) value of compounds on NCI-H1581 cells) [nM]
COc1cc(OC)c(Cl)c(-c2cc3cnc(Nc4ccc(C5CCNCC5)c(C)c4)nc3n3cnnc23)c1 [Compound 52, 6-(2-chloro-3,5-dimethoxyphenyl)-N-(3-methyl-4-(piperidin-4-yl)phenyl)-[1,2,4]triazolo[4′,3′:1,6]pyrido[2,3-d]pyrimidin-2-amine]	< 1	< 1		
COc1cc(OC)c(Cl)c(-c2cc3cnc(Nc4ccc(N5CCN(C(C)C)CC5)cc4)nc3n3cnnc23)c1 [Compound 11, 6-(2-chloro-3,5-dimethoxyphenyl)-N-(4-(4-isopropylpiperazin-1-yl)phenyl)-[1,2,4]triazolo[4′,3′:1,6]pyrido[2,3-d]pyrimidin-2-amine]	< 1	< 1		
COc1cc(OC)c(Cl)c(-c2cc3cnc(Nc4ccc(N5CC6(CN(C(=O)N(C)C)C6)C5)cc4)nc3n3cnnc23)c1 [Compound 108, 6-(4-((6-(2-chloro-3,5-dimethoxyphenyl)-[1,2,4]triazolo[4′,3′:1,6]pyrido[2,3-d]pyrimidin-2-yl)amino)phenyl)-N,N-dimethyl-2,6-diazaspiro[3.3]heptane-2-carboxamide]	> 10	10 to 100		
CC[N+]1([O-])CCN(c2ccc(Nc3ncc4cc(-c5cc(OC)cc(OC)c5Cl)c5nncn5c4n3)cc2)CC1 [Compound 99, 4-(4-((6-(2-chloro-3,5-dimethoxyphenyl)-[1,2,4]triazolo[4′,3′:1,6]pyrido[2,3-d]pyrimidin-2-yl)amino)phenyl)-1-ethylpiperazine 1-oxide]	> 10	1 to 10		
C=CC(=O)Nc1ccc(Cc2nc3c(-c4cc(OC)cc(OC)c4Cl)cc4cnc(NCCN5CCOCC5)nc4n3n2)cc1 [Compound 112, N-(4-((4-(2-chloro-3,5-dimethoxyphenyl)-8-((2-morpholinoethyl)amino)-[1,2,4]triazolo[1′,5′:1,6]pyrido[2,3-d]pyrimidin-2-yl)methyl)phenyl)acrylamide]	> 100	10 to 100		
COc1cc(OC)c(Cl)c(-c2cc3cnc(Nc4ccc(N5CC[N+]6(O)CCC[C@@H]6C5)cc4)nc3n3cnnc23)c1 (stereo partly drawn) [Compound 100, (8aR)-2-(4-((6-(2-chloro-3,5-dimethoxyphenyl)-[1,2,4]triazolo[4′,3′:1,6]pyrido[2,3-d]pyrimidin-2-yl)amino)phenyl)octahydro-5H-pyrrolo[1,2-a]pyrazine 5-oxide]	< 1	10 to 100		
C=CC(=O)N1CCN(CCCc2nnc3c(-c4cc(OC)cc(OC)c4Cl)cc4cnc(NC)nc4n23)CC1 [Compound 113, 1-(4-((6-(2-chloro-3,5-dimethoxyphenyl)-2-(methylamino)-[1,2,4]triazolo[4′,3′:1,6]pyrido[2,3-d]pyrimidin-9-yl)propyl)piperazin-1-yl)prop-2-en-1-one]	> 10	10 to 100		
COc1cc(OC)c(Cl)c(-c2cc3cnc(Nc4ccc(N5CCN(C(C)=O)CC5)cc4)nc3n3cnnc23)c1 [Compound 106, 6-(2-chloro-3,5-dimethoxyphenyl)-N-(4-(4-acetylpiperazine-1-yl)phenyl)-[1,2,4]triazolo[4′,3′:1,6]pyrido[2,3-d]pyrimidin-2-amine]	< 1	1 to 10		
COc1cc(OC)c(Cl)c(-c2cc3cnc(Nc4ccc(N5CCN(C)C(C)(C)C5)cc4)nc3n3cnnc23)c1 [Compound 26, 6-(2-chloro-3,5-dimethoxyphenyl)-N-(4-(3,3,4-trimethylpiperazin-1-yl)phenyl)-[1,2,4]triazolo[4′,3′:1,6]pyrido[2,3-d]pyrimidin-2-amine]	< 1	< 1		
COc1cc(OC)c(Cl)c(-c2cc3cnc(Nc4ccc(N5CCN(CCO)CC5)cc4)nc3n3cnnc23)c1 [Compound 32, 2-(4-(4-((6-(2-chloro-3,5-dimethoxyphenyl)-[1,2,4]triazolo[4′,3′:1,6]pyrido[2,3-d]pyrimidin-2-yl)amino)phenyl)piperazin-1-yl)ethan-1-ol]	< 1	1 to 10		
COc1cc(OC)c(Cl)c(-c2cc3cnc(Nc4ccc(N5CCN(C)CC5)cn4)nc3n3cnnc23)c1 [Compound 16, 6-(2-chloro-3,5-dimethoxyphenyl)-N-(5-(4-methylpiperazin-1-yl)pyridin-2-yl)-[1,2,4]triazolo[4′,3′:1,6]pyrido[2,3-d]pyrimidin-2-amine]	> 10	10 to 100		
COc1cc(OC)c(Cl)c(-c2cc3cnc(Nc4ccc(N5CC6CCC(C5)N6C)cc4)nc3n3cnnc23)c1 [Compound 23, 6-(2-chloro-3,5-dimethoxyphenyl)-N-(4-(8-methyl-3,8-diazabicyclo[3.2.1]octan-3-yl)phenyl)-[1,2,4]triazolo[4′,3′:1,6]pyrido[2,3-d]pyrimidin-2-amine]		< 1	< 1	
C=CC(=O)Nc1ccc(Cc2nnc3c(-c4cc(OC)cc(OC)c4Cl)cc4cnc(NCCN5CCOCC5)nc4n23)cc1 [Compound 86, N-(4-((6-(2-chloro-3,5-dimethoxyphenyl)-2-((2-morpholinoethyl)amino)-[1,2,4]triazolo[4′,3′:1,6]pyrido[2,3-d]pyrimidin-9-yl)methyl)phenyl)acrylamide]	> 10	1 to 10		
COc1cc(OC)c(Cl)c(-c2cc3cnc(Nc4ccc(N5CCC(N(C)C)CC5)cc4)nc3n3cnnc23)c1 [Compound 14, 6-(2-chloro-3,5-dimethoxyphenyl)-N-(4-(4-(dimethylamino)piperidin-1-yl)phenyl)[1,2,4]triazolo[4′,3′:1,6]pyrido[2,3-d]pyrimidin-2-amine]	< 1	< 1		
CCN1CCN(Cc2ccc(Nc3ncc4cc(-c5cc(OC)cc(OC)c5Cl)c5nncn5c4n3)nc2)CC1 [Compound 17, 6-(2-chloro-3,5-dimethoxyphenyl)-N-(5-((4-ethylpiperazin-1-yl)methyl)pyridin-2-yl)-[1,2,4]triazolo[4′,3′:1,6]pyrido[2,3-d]pyrimidin-2-amine]	> 10	10 to 100		
C=CC(=O)N1CCN(CCc2nnc3c(-c4cc(OC)cc(OC)c4Cl)cc4cnc(NC)nc4n23)CC1 [Compound 114, 1-(4-(2-(6-(2-chloro-3,5-dimethoxyphenyl)-2-(methylamino)-[1,2,4]triazolo[4′,3′:1,6]pyrido[2,3-d]pyrimidin-9-yl)ethyl)piperazin-1-yl)prop-2-en-1-one]	> 100	> 100		
CCN1CCN(c2ccc(Nc3ncc4cc(-c5c(Cl)c(OC)cc(OC)c5Cl)c5nncn5c4n3)cc2)CC1 [Compound 61, 6-(2,6-dichloro-3,5-dimethoxyphenyl)-N-(4-(4-ethylpiperazin-1-yl)phenyl)-[1,2,4]triazolo[4′,3′:1,6]pyrido[2,3-d]pyrimidin-2-amine]	< 1	< 1		
COc1cc(OC)c(Cl)c(-c2cc3cnc(Nc4ccc(N5CCN(C(=O)N(C)C)CC5)cc4)nc3n3cnnc23)c1 [Compound 107, 4-(4-((6-(2-chloro-3,5-dimethoxyphenyl)-[1,2,4]triazolo[4′,3′:1,6]pyrido[2,3-d]pyrimidin-2-yl)amino)phenyl)-N,N-dimethylpiperazine-1-carboxamide]	< 1	1 to 10		
COc1cc(OC)c(Cl)c(-c2cc3cnc(Nc4ccc(CN5CCOCC5)cc4)nc3n3cnnc23)c1 [Compound 45, 6-(2-chloro-3,5-dimethoxyphenyl)-N-(4-(morpholinomethyl)phenyl)-[1,2,4]triazolo[4′,3′:1,6]pyrido[2,3-d]pyrimidin-2-amine]				0.9
